Several values for one entry are separate records, joined by “and”; a condition that tells them apart may be missing. Equal entries are not always repeated.
Tested on: Caco-2/moDCs co-culture
Experiment: Multiplex xMAP cytokine levels, Caco-2/moDCs co-culture stimulated with LL-37
Assay type: cell-based, human
Details: moDCs/Caco-2 co-culture, 1 µM LL-37, 24 h, n=2
Experimental: Caco-2 cell line (ATCC HTB-37) was cultured in a humidified CO2-incubator (5% CO2, 37 °C) in the complete DMEM/F12 (1:1) medium (Gibco, Waltham, MA, USA) containing 10% fetal bovine serum (FBS, Gibco) and 1X antibiotic–antimycotic solution (Gibco). To stabilize the cell phenotype, Caco-2 cells have been subcultivated three times before seeding on the filter supports. Then, Caco-2 cells were seeded at a density of 2 × 10^5 cells/cm^2 onto 24-well Millicell cell culture inserts (PC, 0.4-μm pore size, 0.6 cm^2 surface area, cat. #PIHP01250) (Millipore, Burlington, MA, USA), precoated with 0.2% bovine gelatin (Sigma-Aldrich, Saint Louis, MO, USA). After seeding, Caco-2 cells were grown in the same complete medium with re-feeding every 2–3 days until polarization of the monolayer occurred. The functional polarity of the monolayers was developed when transepithelial electrical resistance (TEER) between the apical and basolateral surfaces of the monolayers reached […] as measured by the electrical resistance system Millicell-ERS Voltohmmeter (Millipore, Burlington, MA, USA). Grown cell monolayers were used in transport and cytokine production experiments between the 21st and 29th days.
Peripheral blood mononuclear cells (PBMCs) from a healthy donor were purchased from the American Type Culture Collection (ATCC PCS-800-011). Blood monocytes were isolated from PBMCs by plastic adhesion. Mature monocyte-derived dendritic cells (moDCs) were generated in vitro from peripheral blood monocytes, according to Nair et al.. Briefly, monocytes were cultured in a humidified CO2-incubator (5% CO2, 37 °C) in the complete RPMI-1640 medium (Gibco) with 10% FBS, antibiotics, and supplemented with a cytokine cocktail containing 500 U/mL rhIL-4 and 800 U/mL rhGM-CSF (both Sci-Store, Moscow, Russia). On the third day, the medium was replaced by the same fresh medium with FBS, antibiotics, and the cytokine cocktail. Induction of maturation of the immature monocyte-derived dendritic cells was performed on the 5th day by replacing the medium with the complete RPMI-1640 medium (Gibco) with 10% FBS and antibiotics, supplemented with a cytokine cocktail containing 500 U/mL rhIL-4, 800 U/mL rhGM-CSF (both Sci-Store, Moscow, Russia), and 100 U/mL rhTNF-α (Sigma-Aldrich), and subjected to subsequent incubation of the culture for 4 more days.
Primary blood monocytes, moDCs, and NKT cells were seeded in 600 µL of complete RPMI-1640 with 10% Human AB serum (Capricorn Scientific, Ebsdorfergrund, Germany) and supplemented with 1X antibiotic–antimycotic solution into the wells of 24-well plates at a density of 3–7 × 10^5 cells/well 24 h before the experiment. Then, 24 h later, the medium in each well was replaced by the same medium with 1 µM of LL-37 for the sample wells or fresh medium alone for the control wells, and the permeable inserts with the Caco-2 monolayer with TEER > 400 Ω × cm^2, containing 400 μL of the complete medium in their apical chamber, were immediately placed into the appropriate wells. Also, inserts with the Caco-2 monolayer were placed in cell-free wells of 24-well plates in the same complete RPMI-1640 medium with or without 1 µM of LL-37 as controls. Cells were kept in a CO2-incubator (5% CO2, 37 °C) for another 24 h. Then, culture medium from each well was collected, centrifuged, and frozen at −70 °C.
To quantitatively evaluate a broad spectrum of analytes secreted by human cell cultures at the protein level, multiplex xMAP technology was used. […]

LL-37: the only human cathelicidin, host defense antimicrobial peptide of 37 a.a. residues, produced by solid-phase peptide synthesis
IL-2 level (control 0.75): 1.12 pg/mL
FLT-3L level (control 0.87): 0.93 pg/mL
IL-3 level (control 0.91): 0.91 pg/mL
IFNg level (control 2): 2.28 pg/mL
IL-18 level (control 2.49): 1.42 pg/mL
IL-15 level (control 3.19): 3.42 pg/mL
IL-4 level (control 4.19): 6.58 pg/mL
IL-5 level (control 4.46): 2.93 pg/mL
TGF-a level (control 5.8): 5.22 pg/mL
IL-1b level (control 5.83): 5.83 pg/mL
EGF level (control 6.26): 6.51 pg/mL
IL-9 level (control 7.45): 7.45 pg/mL
IFNa2 level (control 8.64): 10.16 pg/mL
TNFb level (control 9.34): 15.39 pg/mL
GM-CSF level (control 10.7): 8.75 pg/mL
IL-1RA level (control 11.1): 13.57 pg/mL
G-CSF level (control 16.25): 14.89 pg/mL
Fractalkine level (control 22.95): 25.92 pg/mL
IL-6 level (control 23.82): 26.83 pg/mL
IL-22 level (control 26.11, p = 0.10): 37 pg/mL and 37.22 pg/mL
TNFa level (control 41.39): 44.26 pg/mL
IL-13 level (control 43.59): 50.71 pg/mL
FGF-2 level (control 47.27): 47.27 pg/mL
IL-12 (p40) level (control 57.35): 55.01 pg/mL
GROa level (control 60.81): 70.33 pg/mL
IL-27 level (control 63.66): 70.72 pg/mL
PDGF-AB/BB level (control 72.4): 83.52 pg/mL
IL-10 level (control 81.69, p = 0.0035): 52 pg/mL and 52.63 pg/mL
IP-10 level (control 90.92): 118.06 pg/mL
sCD40L level (control 95.47): 95.47 pg/mL
RANTES level (control 142.05): 223.43 pg/mL
M-GSF level (control 168.7): 172.56 pg/mL
PDGF-AA level (control 252.85): 237.55 pg/mL
MCP-3 level (control 376.42): 372.12 pg/mL
VEGFa level (control 723.09): 1786 pg/mL
MIP-1a level (control 1271): 1487 pg/mL
MIP-1b level (control 1340): 1789 pg/mL
MCP-1 level (control 2519): 1925 pg/mL
IL-8 level (control 2799): 3052 pg/mL
MIG level (control 25746): 25834 pg/mL
IL-7 level (control <0.30): <0.30↓ pg/ml
IL-17A level (control <0.70): <0.70↓ pg/ml
IL-1a level (control <1.30): <1.30↓ pg/ml
IL-12 (p70) level (control <1.71): <1.71↓ pg/ml
Eotaxin level (control <2.91): 3.03 pg/mL
IL-17F level (control <12.19): <12.19↓ pg/ml
IL-17E/IL-25 level (control <19.43): <19.43↓ pg/ml
MDC level (control >14590): 6291 pg/mL

Source: publication PMC10526274, “Epithelial-Immune Cell Crosstalk Determines the Activation of Immune Cells In Vitro by the Human Cathelicidin LL-37 at Low Physiological Concentrations” (Biomolecules, 2023)
